DBAASP
In brackets after ≈: the same amount, converted by molar mass.

Assays:
Experiment in all cases: ≥ marks a high value that may be exact or a test limit, other limits are often not marked, values filed in µg/mL are converted to µM
[1] = tested on: Bifidobacterium longum subsp. infantis
Staphylococcus aureus = tested on: Staphylococcus aureus
Escherichia coli = tested on: Escherichia coli
[2] = tested on: Pseudomonas aeruginosa 919
[3] = tested on: Pseudomonas aeruginosa 253
[4] = tested on: Pseudomonas aeruginosa PAO1
[5] = tested on: Pseudomonas aeruginosa 910
[6] = tested on: Candida albicans ATCC 10231
[7] = tested on: Staphylococcus carnosus KHS
[8] = tested on: Staphylococcus aureus ATCC 25923
[9] = tested on: Bacillus licheniformis X39
[10] = tested on: Rhodococcus rhodochrous X15
[11] = tested on: Enterococcus faecalis 981
[12] = tested on: Pseudomonas aeruginosa 11053
Serratia rubidaea X01 = tested on: Serratia rubidaea X01
[13] = tested on: Psychrobacter faecalis X29
[14] = tested on: Escherichia coli ATCC 25922
[15] = tested on: Enterococcus faecalis ATCC 29212
Escherichia coli UB1005 = tested on: Escherichia coli UB1005
[16] = tested on: Salmonella enterica serovar Typhimurium
Candida albicans = tested on: Candida albicans
[17] = tested on: Staphylococcus epidermidis
[18] = tested on: Pseudomonas aeruginosa H103
[19] = tested on: Staphylococcus aureus ATCC BAA-41
Escherichia coli BL21 = tested on: Escherichia coli BL21
[20] = tested on: Staphylococcus aureus ATCC 6538P
[21] = tested on: Candida albicans ATCC 36232
[22] = tested on: Pseudomonas aeruginosa ATCC 9027
[23] = tested on: Staphylococcus aureus ATCC 6538
[24] = tested on: Escherichia coli ATCC 2592
[25] = tested on: Micrococcus luteus ATCC 9341
[26] = tested on: Staphylococcus aureus ATCC 9144
Aureobasidium pullulans = tested on: Aureobasidium pullulans
[27] = tested on: Corynebacterium glutamicum ATCC 13032
[28] = tested on: Pseudomonas aeruginosa ATCC 27853

SMILES: CC[C@H](C)[C@H](NC(=O)[C@@H]1CCCN1C(=O)[C@H](CCC(N)=O)NC(=O)[C@@H]1CCCN1C(=O)[C@@H](NC(=O)[C@H](CCC(N)=O)NC(=O)[C@H](CCC(N)=O)NC(=O)[C@H](CCSC)NC(=O)[C@H](CC(C)C)NC(=O)[C@@H]1CCCN1C(=O)[C@H](CCC(N)=O)NC(=O)[C@H](CC(C)C)NC(=O)[C@H](CC(C)C)NC(=O)[C@@H]1CCCN1C(=O)[C@H](CC(C)C)NC(=O)[C@@H]1CCCN1C(=O)[C@H](CC(C)C)NC(=O)[C@@H](N)Cc1cnc[nH]1)C(C)C)C(=O)O [HLPLPLLQPLMQQVPQPI]
- MIC [1]: ≥ 1450 µM
- MIC (Staphylococcus aureus): > 1450 µM
- MIC (Escherichia coli): > 1450 µM

SMILES: CC[C@H](C)[C@H](NC(=O)[C@@H](N)Cc1ccccc1)C(=O)N[C@@H](CCCCN)C(=O)N[C@@H](Cc1c[nH]c2ccccc12)C(=O)N[C@@H](CCCN=C(N)N)C(=O)N[C@@H](Cc1ccccc1)C(=O)N[C@@H](CCCN=C(N)N)C(=O)N[C@@H](CCCN=C(N)N)C(=O)N[C@@H](Cc1c[nH]c2ccccc12)C(=O)N[C@@H](CCCCN)C(=O)N[C@@H](CCCCN)C(=O)N[C@@H](CCCN=C(N)N)C(=O)N[C@@H](CCCCN)C(N)=O [FIKWRFRRWKKRK]
- MIC [2]: 22.6 µM (≈ 43.8 µg/mL)
- MIC [3]: 8 µM (≈ 15.5 µg/mL)
- MIC [4]: 4 µM (≈ 7.74 µg/mL)
- MIC [5]: 5.66 µM (≈ 10.9 µg/mL)

SMILES: CC[C@H](C)[C@@H]1NC(=O)[C@H](CCCCN)NC(=O)[C@@H](NC(=O)[C@H](Cc2ccccc2)NC(=O)[C@H](CC(C)C)NC(=O)[C@@H](NC(=O)[C@@H]2CCCN2C(=O)[C@@H](NC(=O)[C@@H](NC(=O)[C@H](CCCCN)NC(=O)[C@H](CO)NC(=O)[C@H](C)NC(=O)[C@@H](NC(=O)[C@H](CC(N)=O)NC(=O)[C@H](CC(C)C)NC(=O)[C@H](CC(C)C)NC(=O)[C@@H](NC(=O)[C@H](CO)NC(=O)[C@H](CC(C)C)NC(=O)[C@@H](N)Cc2ccccc2)[C@@H](C)O)C(C)C)C(C)C)C(C)C)[C@@H](C)O)CSSC[C@@H](C(=O)O)NC(=O)[C@H](CCCCN)NC(=O)[C@H](CCCCN)NC(=O)[C@H]([C@@H](C)O)NC1=O [FLSTLLNVASKVVPTLFCKITKKC]
- MIC [6]: 150 µM (≈ 398 µg/mL)
- MIC [7]: 9 µM (≈ 23.9 µg/mL)
- MIC [8]: 9 µM (≈ 23.9 µg/mL)
- MIC [9]: 9 µM (≈ 23.9 µg/mL)
- MIC [10]: 2.3 µM (≈ 6.1 µg/mL)
- MIC [11]: 9 µM (≈ 23.9 µg/mL)
- MIC [12]: ≥ 75 µM
- MIC (Serratia rubidaea X01): 9 µM (≈ 23.9 µg/mL)
- MIC [13]: 9 µM (≈ 23.9 µg/mL)
- MIC [14]: 150 µM (≈ 398 µg/mL)

SMILES: CC[C@H](C)[C@H](NC(=O)[C@H](CCCN=C(N)N)NC(=O)[C@H](C)NC(=O)[C@H](CC(C)C)NC(=O)[C@@H](N)CCCN=C(N)N)C(=O)N[C@H](C(=O)N[C@H](C(=O)N[C@H](C(=O)N[C@@H](CCCN=C(N)N)C(=O)N[C@@H](Cc1c[nH]c2ccccc12)C(=O)N[C@@H](C)C(=O)N[C@@H](CCCN=C(N)N)C(N)=O)[C@@H](C)CC)C(C)C)C(C)C [RLARIVVIRWAR]
- MIC [15]: 2.65 µM (≈ 4 µg/mL)
- MIC (Escherichia coli UB1005): 2.65 µM (≈ 4 µg/mL)
- MIC [2]: 16 µM (≈ 24.1 µg/mL)
- MIC [8]: 5.3 µM (≈ 7.99 µg/mL)
- MIC [16]: 5.3 µM (≈ 7.99 µg/mL)
- MIC (Candida albicans): 5.3 µM (≈ 7.99 µg/mL)
- MIC [17]: 1.33 µM (≈ 2 µg/mL)
- MIC [3]: 16 µM (≈ 24.1 µg/mL)
- MIC [4]: 16 µM (≈ 24.1 µg/mL)
- MIC [5]: 16 µM (≈ 24.1 µg/mL)
- MIC [18]: 10.6 µM (≈ 16 µg/mL)

SMILES: CC[C@H](C)[C@H](NC(=O)[C@H](CCCCN)NC(=O)[C@H](CCCCN)NC(=O)[C@H](Cc1ccccc1)NC(=O)[C@H](CCCCN)NC(=O)[C@H](CCCCN)NC(=O)[C@H](Cc1c[nH]c2ccccc12)NC(=O)[C@@H](N)CCCCN)C(=O)NCC(=O)N[C@@H](C)C(=O)N[C@H](C(=O)N[C@@H](CC(C)C)C(=O)N[C@@H](CCCCN)C(=O)N[C@@H](CCCCN)C(=O)N[C@@H](CC(C)C)C(=O)O)C(C)C [KWKKFKKIGAVLKKL]
- MIC [19]: 16 µM (≈ 29 µg/mL)
- MIC (Escherichia coli BL21): 1.41 µM (≈ 2.57 µg/mL)
- MIC [17]: 0.5 µM (≈ 0.908 µg/mL)
- MIC [20]: 16 µM (≈ 29 µg/mL)
- MIC [4]: 1.41 µM (≈ 2.57 µg/mL)

SMILES: CC[C@H](C)[C@H](NC(=O)[C@H](CCCCN)NC(=O)[C@H](CCCCN)NC(=O)[C@H](Cc1ccccc1)NC(=O)[C@H](CC(C)C)NC(=O)[C@H](CCCCN)NC(=O)[C@H](Cc1c[nH]c2ccccc12)NC(=O)[C@@H](N)CCCCN)C(=O)NCC(=O)N[C@@H](CCCCN)C(=O)N[C@H](C(=O)N[C@@H](CC(C)C)C(=O)N[C@@H](CCCCN)C(=O)N[C@@H](CCCCN)C(=O)N[C@@H](CC(C)C)C(=O)O)C(C)C [KWKLFKKIGKVLKKL]
- MIC [19]: 16 µM (≈ 29.7 µg/mL)
- MIC (Escherichia coli BL21): 1 µM (≈ 1.86 µg/mL)
- MIC [17]: 0.25 µM (≈ 0.464 µg/mL)
- MIC [20]: 5.66 µM (≈ 10.5 µg/mL)
- MIC [4]: 1.41 µM (≈ 2.63 µg/mL)

SMILES: CC(C)C[C@H](NC(=O)[C@H](CS)NC(=O)[C@H](Cc1cnc[nH]1)NC(=O)[C@H](C)NC(=O)[C@H](C)NC(=O)[C@H](CS)NC(=O)[C@H](C)NC(=O)[C@H](C)NC(=O)[C@@H](N)CC(=O)O)C(=O)N[C@@H](Cc1c[nH]c2ccccc12)C(=O)N[C@@H](CCCN=C(N)N)C(N)=O [DAACAAHCLWR]
- MIC [21]: ≥ 164 µM
- MIC [22]: > 164 µM
- MIC [23]: > 164 µM
- MIC [24]: ≥ 164 µM
- MIC [25]: ≥ 164 µM

SMILES: CC[C@H](C)[C@H](NC(=O)[C@H](CCC(N)=O)NC(=O)[C@@H](N)Cc1cnc[nH]1)C(=O)N[C@@H](Cc1ccc(O)cc1)C(=O)N1CCC[C@H]1C(=O)N[C@H](C(=O)N[C@H](C(=O)N[C@@H](CCC(N)=O)C(=O)N1CCC[C@H]1C(=O)N[C@@H](CC(C)C)C(=O)O)[C@@H](C)O)C(C)C [HQIYPVTQPL]
- MIC [1]: ≥ 2510 µM
- MIC (Staphylococcus aureus): > 2510 µM
- MIC (Escherichia coli): > 2510 µM

SMILES: CC(C)[C@H](NC(=O)[C@H](CCCCN)NC(=O)[C@H](C)NC(=O)[C@@H](NC(=O)[C@@H](NC(=O)[C@H](CCCN=C(N)N)NC(=O)[C@H](CCCN=C(N)N)NC(=O)[C@H](Cc1c[nH]c2ccccc12)NC(=O)[C@H](Cc1c[nH]c2ccccc12)NC(=O)[C@H](C)N)[C@@H](C)O)C(C)C)C(=O)N[C@@H](CCCN=C(N)N)C(=O)N[C@@H](CCCCN)C(N)=O [AWWRRTVAKVRK]
- MIC [6]: 25 µM (≈ 38.9 µg/mL)
- MIC [26]: 25 µM (≈ 38.9 µg/mL)
- MIC (Aureobasidium pullulans): ≥ 50 µM
- MIC [27]: 0.8 µM (≈ 1.24 µg/mL)
- MIC [28]: 6.3 µM (≈ 9.8 µg/mL)
- MIC [14]: 12.5 µM (≈ 19.4 µg/mL)
